Experimental data published in patent US11020405B2, “Method for prevention or treatment of diabetic complications” (KANGWON NATIONAL UNIVERSITY UNIVERSITY-INDUSTRY COOPERATION …, priority 2017, dated 2021).

Columns and labels:
TGase [1] = experiment: Identification of receptor of midazolam through TGase activity analysis; assay type: cell-based, human; details: HRECs, 0-50 μM flumazenil or 0-30 μM PK11195 1 hr, then 20 μM midazolam 30 min, then 10 ng/ml VEGF (FIG. 11B)
Protocol: With reference to FIG. 11A, the HRECs of Test Example 1 were subjected to the respective treatments below, cultured for 2 hr, treated with 1 mM 5-(biotinamido)pentylamine, incubated for 1 hr, fixed with 3.7% formaldehyde, treated with 0.2% triton X-100, treated with a blocking solution containing 138 mM NaCl, 0.1% Tween 20 and 2% BSA dissolved in a 20 mM Tris (pH 7.6) buffer, incubated for 30 min, incubated with FITC-conjugated streptavidin (1:200, v/v) for 1 hr, and then measured using confocal microscopy to thus determine the fluorescence intensity of single cells.
(§1) As will be described below, flumazenil was used as a GABAA receptor antagonist and PK11195 was used as a TSOP receptor antagonist.
With reference to FIG. 11B, the HRECs of Test Example 1 were treated with 0 μM, 0.01 μM, 0.1 μM, 1 μM, 10 μM, 20 μM, and 50 μM flumazenil and 0 μM, 0.01 μM, 0.1 μM, 1 μM, 3 μM, 10 μM, and 30 μM PK11195, cultured for 1 hr, treated with 20 μM midazolam, cultured for 30 min, treated with 10 ng/ml VEGF, incubated for 10 min, treated with 1 mM 5-(biotinamido)pentylamine, incubated for 1 hr, fixed with 3.7% formaldehyde, treated with 0.2% triton X-100, treated with a blocking solution containing 138 mM NaCl, 0.1% Tween 20 and 2% BSA dissolved in a 20 mM Tris (pH 7.6) buffer, incubated for 30 min, incubated with FITC-conjugated streptavidin (1:200, v/v) for 1 hr, and then measured using confocal microscopy to thus determine the fluorescence intensity of single cells.

[2] = tested on: human retinal endothelial cells (HRECs); experiment: Identification of receptor of midazolam through ROS concentration analysis; assay type: cell-based; details: 0-50 μM flumazenil or 0-30 μM PK11195 1 hr, then 20 μM midazolam 30 min, then 10 ng/ml VEGF (FIG. 10B)
Protocol: With reference to FIG. 10A, the HRECs of Test Example 1 were subjected to the respective treatments below, cultured for 10 min, treated with 10 μM H2DCFDA, stained for 10 min in a phenol-red-free low-serum medium, and measured using confocal microscopy to thus determine the fluorescence intensity of single cells.
as §1
With reference to FIG. 10B, the HRECs of Test Example 1 were treated with 0 μM, 0.01 μM, 0.1 μM, 1 μM, 10 μM, 20 μM, and 50 μM flumazenil and 0 μM, 0.01 μM, 0.1 μM, 1 μM, 3 μM, 10 μM, and 30 μM PK11195, cultured for 1 hr, treated with 20 μM midazolam, cultured for 30 min, treated with 10 ng/ml VEGF, incubated for 10 min, treated with 10 μM H2DCFDA, stained for 10 min in a phenol-red-free low-serum medium, and then measured using confocal microscopy to thus determine the fluorescence intensity of single cells.

TGase [3] = experiment: Analysis of TGase activity in retinas of diabetic mouse model; assay type: in vivo, C57BL/6 mice; details: intravitreal 3 μL of 0.4 mM flumazenil in two administrations and 2 μL of 2 mM midazolam, group excluded from those without significant increase
Protocol: 6-week-old male C57BL/6 mice (DBL, EumSeong, Korea) were administered with streptozotocin (Sigma-Aldrich) dissolved in a 100 mM citrate buffer (pH 4.5) through intraperitoneal injection in an amount of 150 mg each per kg of mouse weight to give diabetic mouse models. In the diabetic mouse models, the blood glucose level was 19 mM or more when not fasting, and polyuria and diabetes, considered signs of diabetes, were observed. […]
48 μL of 100 mM 5-(biotinamido)pentylamine was injected into the left ventricle of each of normal mice (Normal), midazolam-administered normal mice (Midazolam), diabetic mice (Diabetic), midazolam-administered diabetic mice (Diabetic+Midazolam), flumazenil- and midazolam-administered diabetic mice (Diabetic+flumazenil+Midazolam), cystamine-administered diabetic mice (Diabetic+cystamine) and MDC-administered diabetic mice (Diabetic+MDC) and circulated for 10 min, after which cervical dislocation was performed, and the eyeballs were extracted, fixed with 4% paraformaldehyde for 45 min, incised and subjected to permeation treatment for 30 min. The obtained retinal samples were incubated with a blocking solution for 30 min, treated with FITC-conjugated streptavidin (1:200, v/v), stained for 1 hr, and measured using confocal microscopy. […]

[4] = tested on: retinal vessels of diabetic mice; experiment: Fluorescein angiography for mouse model (retinal vascular leakage); assay type: in vivo, C57BL/6 mice; details: intravitreal 3 μL of 0.4 mM flumazenil in two administrations and 2 μL of 2 mM midazolam, group excluded from those without significant increase

SMILES: CCOC(=O)c1ncn2c1CN(C)C(=O)c1cc(F)ccc1-2 [flumazenil]
- TGase activity in midazolam- and VEGF-treated cells after receptor antagonist (TGase [1]): an increase in TGase activity with an increase in flumazenil concentration
- ROS concentration in midazolam- and VEGF-treated cells after receptor antagonist [2]: an increase in ROS concentration with an increase in flumazenil concentration
- TGase activity in retina compared to normal mice, flumazenil given with midazolam (TGase [3]): excluding the diabetic mice (Diabetic) and the flumazenil- and midazolam-administered diabetic mice
- retinal vascular leakage compared to normal mice, flumazenil given with midazolam [4]: excluding the diabetic mice (Diabetic) and the flumazenil- and midazolam-administered diabetic mice
